{"source": "patent US10034886B2", "about": "“GLP-1 receptor modulators” (Celgene International II SÀRL, priority 2014, dated 2018)", "molecular_target": "T1, GLP-1R (Homo sapiens, UniProt P43220)", "T1 construct": "host or cells: GLP-1R CRE-bla CHO-K1 cells", "T1 sequence (P43220 24-463)": "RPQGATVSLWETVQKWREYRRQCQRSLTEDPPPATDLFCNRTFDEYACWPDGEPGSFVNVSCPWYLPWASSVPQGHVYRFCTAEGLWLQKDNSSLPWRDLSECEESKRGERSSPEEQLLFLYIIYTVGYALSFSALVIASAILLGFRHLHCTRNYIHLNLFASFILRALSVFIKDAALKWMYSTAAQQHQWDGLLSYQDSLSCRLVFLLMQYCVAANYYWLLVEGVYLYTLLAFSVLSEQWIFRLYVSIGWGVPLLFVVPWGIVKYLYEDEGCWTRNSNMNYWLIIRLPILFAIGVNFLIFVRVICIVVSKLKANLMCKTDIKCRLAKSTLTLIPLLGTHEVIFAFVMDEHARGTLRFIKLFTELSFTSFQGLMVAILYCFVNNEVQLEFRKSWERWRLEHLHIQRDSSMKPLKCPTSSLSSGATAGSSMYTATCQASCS", "T1 sequence (P01275 100-127 partner limits assumed)": "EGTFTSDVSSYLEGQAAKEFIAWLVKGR", "experiment": "EC20 GLP-1(9-36) PAM cAMP assay: dose response of compound in the presence of fixed concentration of GLP-1(9-36)", "type": "cell-based", "details": "GLP-1R CRE-bla CHO-K1 cells, read-out: EC20 GLP-1(9-36) PAM EC50", "summary_of_the_method": "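GLP-1R CRE-bla CHO-K1 cells treated 30 min at 37 °C with 12-point compound dose response plus fixed EC20 GLP-1(9-36), with IBMX, in HBSS/HEPES/0.1% BSA pH 7.4. Total cAMP measured by luminescent detection against standard curve; EC50 and Emax from non-linear regression.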", "key": {"[1]": {"details": "compound dose response with fixed concentration of GLP-1(9-36)"}, "[2]": {"details": "dose response of compound in presence of fixed concentration of GLP-1(9-36)"}}, "note": "Where two headings read alike, the source gives them in different places."}
{"compound": "CCC[C@H]1CC[C@H](C2CCN(c3cnc(-c4ccc(C[C@H](NC(=O)c5ccc(C(C)(C)C)s5)C(=O)N5CC(C)(C(=O)O)C5)cc4)nc3)CC2)CC1", "note": "[Compound 1450]", "values": [{"measurement": "EC50", "setting": "[1]", "value": "< 0.8", "unit": "µM"}]}
{"compound": "CCCCCCCOc1ccc(-c2cnc(-c3ccc(C[C@H](NC(=O)c4ccc(C(C)(C)C)s4)C(=O)N[C@@H](CC(=O)O)C(=O)N4CCCCC4)cc3)nc2)cc1", "note": "[Compound 529]", "values": [{"measurement": "EC50", "setting": "[2]", "value": "< 0.8", "unit": "µM"}]}
{"compound": "CC(C)(C)c1ccc(C(=O)N[C@@H](Cc2ccc(-c3ncc(-c4ccc([C@H]5CC[C@H](C)CC5)cc4)cn3)cc2)C(=O)N2CC(C(=O)O)C2)s1", "note": "[Compound 1176]", "values": [{"measurement": "EC50", "setting": "[2]", "value": "< 0.8", "unit": "µM"}]}
{"compound": "CCCCCCCOc1ccc(-c2cnc(-c3ccc(C[C@H](NC(=O)c4ccc(CC(C)C)s4)C(=O)N4CCC[C@H]4C(=O)O)cc3)nc2)cc1", "note": "[Compound 1080]", "values": [{"measurement": "EC50", "setting": "[2]", "value": "0.8 to 2.5", "unit": "µM"}]}
{"compound": "CCCc1ccc(C2CCN(c3cnc(-c4ccc(C[C@H](NC(=O)c5ccc(C(C)(C)C)s5)C(=O)N5CC(C(=O)O)C5)cc4)nc3)CC2)cc1", "note": "[Compound 1432]", "values": [{"measurement": "EC50", "setting": "[1]", "value": "< 0.8", "unit": "µM"}]}
{"compound": "CC(C)(C)c1ccc(C(=O)N[C@@H](Cc2ccc(-c3ncc(-c4ccc(-c5ccc(C6CCCC6)cc5)cc4F)cn3)cc2)C(=O)N2CC(C(=O)O)C2)s1", "note": "[Compound 1211]", "values": [{"measurement": "EC50", "setting": "[1]", "value": "< 0.8", "unit": "µM"}]}
{"compound": "CCCCCCCOc1ccc(-c2cnc(-c3ccc(C[C@H](NC(=O)c4ccc(CCC)cc4)C(=O)N[C@H](C)C(=O)O)cc3)nc2)cc1", "note": "[Compound 830]", "values": [{"measurement": "EC50", "setting": "[2]", "value": "5 to 10", "unit": "µM"}]}
{"compound": "CCCCCCCOc1ccc(-c2cnc(-c3ccc(C[C@H](NC(=O)c4cnc(C(C)(C)C)nc4)C(=O)N[C@H](C)C(=O)O)cc3)nc2)cc1", "note": "[Compound 832]", "values": [{"measurement": "EC50", "setting": "[2]", "value": "2.5 to 5", "unit": "µM"}]}
{"compound": "CC(C)CCCOc1ccc(-c2cnc(-c3ccc(C[C@H](NC(=O)Cc4csc(C(C)(C)C)n4)C(=O)N4CC(C(=O)O)C4)cc3)nc2)cc1", "note": "[Compound 1244]", "values": [{"measurement": "EC50", "setting": "[1]", "value": "2.5 to 5", "unit": "µM"}]}
{"compound": "CCCCCCCOc1ccc(-c2cnc(-c3ccc(C[C@H](NC(=O)c4ccc(C(C)(C)C)c(OC)c4)C(=O)N4CC[C@H](C(=O)O)C4)cc3)nc2)cc1", "note": "[Compound 862]", "values": [{"measurement": "EC50", "setting": "[2]", "value": "0.8 to 2.5", "unit": "µM"}]}
{"compound": "C[C@@H](NC(=O)[C@H](Cc1ccc(-c2ncc(-c3ccc(-c4ccccc4F)cc3)cn2)cc1)NC(=O)c1ccc(C(C)(C)C)s1)C(=O)O", "note": "[Compound 1133]", "values": [{"measurement": "EC50", "setting": "[2]", "value": "< 0.8", "unit": "µM"}]}
{"compound": "CCCCCCCOc1ccc(-c2cnc(-c3ccc(C[C@H](NC(=O)c4ccc(C(C)(C)C)s4)C(=O)N4CCC(CCC(=O)O)C4)cc3)nc2)cc1", "note": "(stereo partly drawn) [Compound 991]", "values": [{"measurement": "EC50", "setting": "[2]", "value": "0.8 to 2.5", "unit": "µM"}]}
{"compound": "CCCCCCCOc1ccc(-c2cnc(-c3ccc(C[C@H](NC(=O)c4ccc(CCCC)cc4)C(=O)N4CC(C(=O)O)C4)cc3)nc2)cc1", "note": "[Compound 1115]", "values": [{"measurement": "EC50", "setting": "[2]", "value": "0.8 to 2.5", "unit": "µM"}]}
{"compound": "CC(C)CCCCOc1ccc(-c2cnc(-c3ccc(C[C@H](NC(=O)c4ccc(C(C)(C)C)s4)C(=O)N[C@H](C)C(=O)O)cc3)nc2)cc1", "note": "[Compound 770]", "values": [{"measurement": "EC50", "setting": "[2]", "value": "< 0.8", "unit": "µM"}]}
{"compound": "CCCCCCCOc1ccc(-c2cnc(-c3ccc(C[C@H](NC(=O)c4ccc(C(C)(C)C)cc4)C(=O)N[C@@H](Cc4ccc(O)cc4)C(=O)O)cc3)nc2)cc1", "note": "[Compound 451]", "values": [{"measurement": "EC50", "setting": "[2]", "value": "< 0.8", "unit": "µM"}]}
{"compound": "CC(C)(C)c1ccc(C(=O)N[C@@H](Cc2ccc(-c3ncc(-c4ccc(-c5ccccc5)cc4)cn3)cc2)C(=O)N2CC[C@H](C(=O)O)C2)s1", "note": "[Compound 769]", "values": [{"measurement": "EC50", "setting": "[2]", "value": "5 to 10", "unit": "µM"}]}
{"compound": "C[C@@H](NC(=O)[C@H](Cc1ccc(-c2ncc(-c3ccc(OCCC4CCCCC4)cc3)cn2)cc1)NC(=O)c1ccc(C(C)(C)C)cc1)C(=O)O", "note": "[Compound 794]", "values": [{"measurement": "EC50", "setting": "[2]", "value": "0.8 to 2.5", "unit": "µM"}]}
{"compound": "C[C@@H](NC(=O)[C@H](Cc1ccc(-c2ncc(-c3ccc(-c4ccc(C(F)(F)F)cc4F)cc3)cn2)cc1)NC(=O)c1ccc(C(C)(C)C)s1)C(=O)O", "note": "[Compound 1147]", "values": [{"measurement": "EC50", "setting": "[2]", "value": "< 0.8", "unit": "µM"}]}
{"compound": "CCCCc1ccc(-c2cnc(-c3ccc(C[C@H](NC(=O)c4ccc(C(C)(C)C)cc4)C(=O)NCCC(=O)O)cc3)nc2)cc1", "note": "[Compound 677]", "values": [{"measurement": "EC50", "setting": "[2]", "value": "2.5 to 5", "unit": "µM"}]}
{"compound": "COc1ccc(-c2cnc(-c3ccc(C[C@H](NC(=O)c4ccc(C(C)(C)C)s4)C(=O)N[C@H](C)C(=O)O)cc3)nc2)cc1", "note": "[Compound 730]", "values": [{"measurement": "EC50", "setting": "[2]", "value": "2.5 to 5", "unit": "µM"}]}
{"compound": "CCCCCCCOc1ccc(-c2cnc(-c3ccc(C[C@H](NC(=O)c4ccc(C(C)(C)C)s4)C(=O)NC(C(=O)O)C(O)c4ccc(Cl)cc4)cc3)nc2)cc1", "note": "(stereo partly drawn) [Compound 901]", "values": [{"measurement": "EC50", "setting": "[2]", "value": "0.8 to 2.5", "unit": "µM"}]}
{"compound": "CC(C)(C)c1ccc(C(=O)N[C@@H](Cc2ccc(-c3ncc(N4CCC(c5ccc(CC#N)cc5)CC4)cn3)cc2)C(=O)N2CC(C(=O)O)C2)s1", "note": "[Compound 1500]", "values": [{"measurement": "EC50", "setting": "[1]", "value": "5 to 10", "unit": "µM"}]}
{"compound": "CCCCCCCOc1ccc(-c2cnc(-c3ccc(C[C@H](NC(=O)c4ccc(C(C)(C)C)s4)C(=O)NC(C(=O)O)C(C)c4ccccc4)cc3)nc2)cc1", "note": "(stereo partly drawn) [Compound 636]", "values": [{"measurement": "EC50", "setting": "[2]", "value": "< 0.8", "unit": "µM"}]}
{"compound": "C[C@@H](NC(=O)[C@H](Cc1ccc(-c2ncc(-c3ccc(N4CCOCC4)cc3)cn2)cc1)NC(=O)c1ccc(C(C)(C)C)s1)C(=O)O", "note": "[Compound 1307]", "values": [{"measurement": "EC50", "setting": "[1]", "value": "0.8 to 2.5", "unit": "µM"}]}
{"compound": "C[C@@H](NC(=O)[C@H](Cc1ccc(-c2ncc(-c3ccc(-c4ccccc4)c(F)c3)cn2)cc1)NC(=O)c1ccc(C(C)(C)C)s1)C(=O)O", "note": "[Compound 1289]", "values": [{"measurement": "EC50", "setting": "[1]", "value": "< 0.8", "unit": "µM"}]}
{"compound": "CCCCCCCOc1ccc(-c2cnc(-c3ccc(C[C@H](NC(=O)c4ccc(CC)s4)C(=O)N4CC[C@H](C(=O)O)C4)cc3)nc2)cc1", "note": "[Compound 863]", "values": [{"measurement": "EC50", "setting": "[2]", "value": "0.8 to 2.5", "unit": "µM"}]}
{"compound": "CC(C)(C)CCCOc1ccc(-c2cnc(-c3ccc(C[C@H](NC(=O)c4ccc(C(C)(C)C)s4)C(=O)N4CC(C(=O)O)C4)cc3)nc2)cc1", "note": "[Compound 944]", "values": [{"measurement": "EC50", "setting": "[2]", "value": "< 0.8", "unit": "µM"}]}
{"compound": "C[C@@H](NC(=O)[C@H](Cc1ccc(-c2ncc(-c3ccc(-c4ccc(C(F)(F)F)cc4)cc3)cn2)cc1)NC(=O)c1ccc(C(C)(C)C)s1)C(=O)O", "note": "[Compound 1313]", "values": [{"measurement": "EC50", "setting": "[1]", "value": "< 0.8", "unit": "µM"}]}
{"compound": "CCCCCCCOc1ccc(-c2cnc(-c3ccc(C[C@H](NC(=O)c4ccc(CCC)cc4)C(=O)N4CC(C(=O)O)C4)cc3)nc2)cc1", "note": "[Compound 1112]", "values": [{"measurement": "EC50", "setting": "[2]", "value": "0.8 to 2.5", "unit": "µM"}]}
{"compound": "CCC[C@H]1CC[C@H](C2CCN(c3cnc(-c4ccc(C[C@H](NC(=O)c5ccc(C(C)(C)C)s5)C(=O)N5CC(c6nn[nH]n6)C5)cc4)nc3)CC2)CC1", "note": "[Compound 1442]", "values": [{"measurement": "EC50", "setting": "[1]", "value": "< 0.8", "unit": "µM"}]}
{"compound": "CCCCOc1ccc(-c2cnc(-c3ccc(C[C@H](NC(=O)c4ccc(C(C)(C)C)s4)C(=O)N[C@H](C)C(=O)O)cc3)nc2)cc1F", "note": "[Compound 1044]", "values": [{"measurement": "EC50", "setting": "[2]", "value": "2.5 to 5", "unit": "µM"}]}
{"compound": "CCc1ccc(/C=C/c2cnc(-c3ccc(C[C@H](NC(=O)c4ccc(C(C)(C)C)s4)C(=O)N4CC[C@H](C(=O)O)C4)cc3)nc2)cc1", "note": "[Compound 1086]", "values": [{"measurement": "EC50", "setting": "[2]", "value": "0.8 to 2.5", "unit": "µM"}]}
{"compound": "CCCCCOc1ccc(-c2cnc(-c3ccc(C[C@H](NC(=O)c4ccc(C(C)(C)C)cc4)C(=O)NCCC(=O)O)cc3)nc2)cc1", "note": "[Compound 710]", "values": [{"measurement": "EC50", "setting": "[2]", "value": "5 to 10", "unit": "µM"}]}
{"compound": "CCOc1ccc(-c2ccc(-c3cnc(-c4ccc(C[C@H](NC(=O)c5ccc(C(C)(C)C)s5)C(=O)N[C@H](C)C(=O)O)cc4)nc3)cc2)cc1", "note": "[Compound 1287]", "values": [{"measurement": "EC50", "setting": "[1]", "value": "0.8 to 2.5", "unit": "µM"}]}
{"compound": "CCCCCCCOc1ccc(-c2cnc(-c3ccc(C[C@H](NC(=O)c4ccc(C(C)(C)C)s4)C(=O)N4CC(C(N)=O)C4)cc3)nc2)cc1", "note": "[Compound 972]", "values": [{"measurement": "EC50", "setting": "[2]", "value": "5 to 10", "unit": "µM"}]}
{"compound": "CCc1ccc(C(=O)N[C@@H](Cc2ccc(-c3ncc(-c4ccc([C@H]5CC[C@H](CC)CC5)cc4)cn3)cc2)C(=O)N2CC(C(=O)O)C2)nc1", "note": "[Compound 1342]", "values": [{"measurement": "EC50", "setting": "[1]", "value": "0.8 to 2.5", "unit": "µM"}]}
{"compound": "CCC(C)COc1ccc(-c2cnc(-c3ccc(C[C@H](NC(=O)c4ccc(C(C)(C)C)s4)C(=O)N4CC(C(=O)O)C4)cc3)nc2)cc1", "note": "(stereo partly drawn) [Compound 797]", "values": [{"measurement": "EC50", "setting": "[2]", "value": "0.8 to 2.5", "unit": "µM"}]}
{"compound": "CC(=O)c1ccc(-c2ccc(-c3cnc(-c4ccc(C[C@H](NC(=O)c5ccc(C(C)(C)C)s5)C(=O)O)cc4)nc3)cc2)cc1", "note": "[Compound 1352]", "values": [{"measurement": "EC50", "setting": "[1]", "value": "0.8 to 2.5", "unit": "µM"}]}
{"compound": "Cc1cc(-c2ccc(-c3cnc(-c4ccc(C[C@H](NC(=O)c5ccc(C(C)(C)C)s5)C(=O)N5CC(C(=O)O)C5)cc4)nc3)c(F)c2)ccc1Cl", "note": "[Compound 1199]", "values": [{"measurement": "EC50", "setting": "[2]", "value": "< 0.8", "unit": "µM"}]}
